Columns and labels:
[1] = biological target: human serum albumin (HSA) (Homo sapiens, UniProt P02768); assay: Evaluation of binding to albumin (HSA solution, PBS control)
Protocol: Thereafter, the reaction liquids were added to a spin column (Sephadex G-100; manufactured by Cytiva), and centrifuged at 1500×g at 4° C. for 2 minutes. After separation, the radioactivity for each of the column and the eluate was measured with a gamma counter.
(§1) When a compound to be evaluated binds to albumin to form a composite, the compound passes through the column because of the increased molecular size.
As in Examples described above, PBS and human albumin were used to evaluate binding to albumin.
(§2) Thereafter, the reaction liquid was added to a spin column (Sephadex G-50; manufactured by Cytiva), and centrifuged at 1500×g at 4° C. for 2 minutes. After separation, the radioactivity of the column and the eluate was measured with a gamma counter.

[2] = system: LNCaP cells (PSMA-positive, human prostate cancer); assay: Binding assay using cultured cells (LNCaP); assay type: cell-based; conditions: for binding to LNCaP cells on adding an excess amount of the PSMA inhibitor (2-PMPA): 2-PMPA final concentration 100 μM
Protocol: LNCaP cells (PSMA-positive, human prostate cancer) and PC-3 cells (PSMA-negative, human prostate cancer) were used. These cells were purchased from American Type Culture Collection and DS Biomedical, respectively. Each of the cells were cultured in RPMI 1640, which is manufactured by NACALAI TESQUE, INC. and contains antibiotics (penicillin and streptomycin) and 10% inactivated fetal bovine serum, at 37° C. under 5% CO2.
The LNCaP cells and PC-3 cells were each seeded on a 12 well plate at 4.0×10^5 cells/well, and left standing at 37° C. under 5% CO2 for 48 hours.
The culture medium was removed, and an assay medium (0.5% FBS-containing RPMI 1640 medium) solution (1 mL) containing [^111In]In-PSMA-DA1 or [^111In]In-PSMA-DB (37 kBq) was added. Thereafter, the plate was allowed to stand at 37° C. under 5% CO2 for 1 hour.
(§3) In the inhibition assays, after removing the culture medium, an assay medium (1 mL) solution containing: [^111In]In-PSMA-DA1 or [^111In]In-PSMA-DB (37 kBq); and 2-(phosphonomethyl) pentanedioic acid (2-PMPA) (PSMA inhibitor; final concentration: 100 μM) was added. Thereafter, the plate was allowed to stand at 37° C. under 5% CO2 for 1 hour.
After removing the assay medium, each well was washed with an assay medium (1 mL) containing neither the radiolabeled compound nor 2-PMPA, and the cells were lysed with 1 N aqueous sodium hydroxide solution (200 μL×2).
The radioactivity for each of the assay medium and the cell lysate was measured with a gamma counter. Separately, the total protein concentration in the cell lysate was calculated using BCA Protein Assay Kit, which is manufactured by Thermo Fisher Scientific K.K. The value (% ID/mg protein) obtained by dividing the percentage (% ID) of the sample's radioactivity amount to the added radioactivity amount by the total protein amount was calculated for each sample.
In the same manner as in Example 1-1 described above, LNCaP cells and PC-3 cells were cultured and cell-binding assay were performed. Evaluation was carried out by the same experimental procedure and statistical method as in Example 1-1, except that 0.5% FBS-containing RPMI 1640 medium (1 mL) containing [^111In]In-PtDA (37 kBq) was used.
LNCaP cells and PC-3 cells cultured in the same method as in Example 1-1 were each seeded on a 12 well plate at 4.0×10^5 cells/well, and left standing at 37° C. under 5% CO2 for 48 hours. The culture medium was removed, and an assay medium (0.5% FBS-containing RPMI 1640 medium) solution (1 mL) containing the radiolabeled compound (37 kBq each) in Examples 3-1 to 3-3 or Comparative Examples 2-1 to 2-2 was added. Thereafter, the plate was allowed to stand at 37° C. under 5% CO2 for 1 hour.
as §3, with “experiments,” for “assays,”, “mL)” for “mL) solution”, “the radiolabeled compound described above;” for “[^111In]In-PSMA-DA1 or [^111In]In-PSMA-DB (37 kBq);”
After removing the assay medium, each well was washed with assay medium (1 mL), and the cells were lysed with 1 N aqueous sodium hydroxide solution (200 μL×2).
Radioactivity of each of the cell lysates was measured with a gamma counter. Separately, the total protein concentration in the cell lysate was calculated using BCA Protein Assay Kit, which is manufactured by Thermo Fisher Scientific K.K. The value (% ID/mg protein) obtained by dividing the percentage (% ID) of the sample's radioactivity amount to the added radioactivity amount by the total protein amount was calculated for each sample.
LNCaP cells and PC-3 cells cultured in the same method as in Example 1-1 were each seeded on a 12 well plate at 4.0×10^5 cells/well, and left standing at 37° C. under 5% CO2 for 48 hours.
Thereafter, the plate was allowed to stand at 37° C. under 5% CO2 for 1 hour. […]

[3] = system: plasma albumin (human plasma); assay: Evaluation of binding to albumin (human plasma); conditions: for radioactivity in the eluate (in words): left to stand in human plasma
Protocol: A PBS solution (37 kBq, 50 μL) of [^111In]In-PSMA-DA1 or [^111In]In-PSMA-DB was added to 200 μL of PBS, mouse plasma, human plasma, or a human serum albumin (HSA) solution (45 mg/mL) in PBS, respectively, and the mixtures were allowed to stand at 37° C. for 10 minutes. Thereafter, the reaction liquids were added to a spin column ([…]; manufactured by Cytiva), and centrifuged at 1500×g at 4° C. for 2 minutes. After separation, the radioactivity for each of the column and the eluate was measured with a gamma counter.
as §1
As in Example 1-1 described above, PBS, mouse plasma, human plasma, and human albumin were used to evaluate binding to albumin. Evaluation was carried out by the same experimental procedure and statistical method as in Example 1-1, except that a PBS solution (37 kBq, 50 μL) of [^111In]In-PtDA was used.
as §2

[4] = left to stand in HSA solution (45 mg/mL)

Chain of human serum albumin (HSA) (P02768 25-609): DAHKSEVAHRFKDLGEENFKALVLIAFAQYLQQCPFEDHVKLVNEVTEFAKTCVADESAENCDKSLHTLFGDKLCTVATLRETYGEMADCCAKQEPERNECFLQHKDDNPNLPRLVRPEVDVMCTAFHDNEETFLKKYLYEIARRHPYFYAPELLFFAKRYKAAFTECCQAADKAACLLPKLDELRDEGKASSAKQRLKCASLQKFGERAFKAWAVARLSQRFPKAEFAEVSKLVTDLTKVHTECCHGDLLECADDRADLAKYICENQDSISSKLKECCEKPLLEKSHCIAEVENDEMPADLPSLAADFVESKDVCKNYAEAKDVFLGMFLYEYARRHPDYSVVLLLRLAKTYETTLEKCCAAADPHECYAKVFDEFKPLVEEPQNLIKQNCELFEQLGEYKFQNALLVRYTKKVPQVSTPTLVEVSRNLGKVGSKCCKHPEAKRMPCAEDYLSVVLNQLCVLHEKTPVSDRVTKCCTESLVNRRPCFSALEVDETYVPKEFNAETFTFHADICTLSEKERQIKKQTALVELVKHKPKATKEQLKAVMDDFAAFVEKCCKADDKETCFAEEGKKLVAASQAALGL

radioactivity in the eluate (in words) [1, 4]	radioactivity in the eluate (in words) ([1]; left to stand in PBS)	Compound	binding to LNCaP cells on adding an excess amount of the PSMA inhibitor (2-PMPA) [2]	binding ability to LNCaP cells compared to PC-3 cells ([2]; 37° C., 1 hour)	radioactivity in the eluate (in words) [3]	other results
significantly higher	–	O=C([O-])CN(Cc1cccc(C(=O)[O-])n1)C[C@H](Cc1ccc(NC(=O)[C@H](CCCCNC(=O)CCC(=O)NCCCC[C@H](NC(=O)N[C@@H](CCC(=O)O)C(=O)O)C(=O)O)NC(=O)CCCc2ccc(I)cc2)cc1)N(CC(=O)[O-])Cc1cccc(C(=O)[O-])n1.[111In+3] [[^111In]In-Octapa-2]	–	–	–	–
significantly higher	no significant radioactivity	O=C([O-])CN1CCN(C(CCC(=O)NCCCC[C@H](NC(=O)N[C@@H](CCC(=O)O)C(=O)O)C(=O)O)C(=O)[O-])CCN(CC(=O)[O-])CCN(C(CCC(=O)N[C@@H](CCCCNC(=O)CCCc2ccc(I)cc2)C(=O)O)C(=O)[O-])CC1.[111In+3] (some centres unmarked) [[^111In]In-PSMA-DA1]	significantly reduced	high binding ability	significantly higher	–
–	no significant radioactivity	O=C([O-])CN1CCN(C(CCC(=O)NCCCC[C@H](NC(=O)N[C@@H](CCC(=O)O)C(=O)O)C(=O)O)C(=O)[O-])CCN(CC(=O)[O-])CCN(C(CCC(=O)Nc2ccccc2)C(=O)[O-])CC1.[111In+3] (some centres unmarked) [[^111In]In-PSMA-DB, reference compound]	significantly reduced	high binding ability	–	–
–	–	O=C(O)CC[C@H](NC(=O)N[C@@H](CCCCNC(=O)[C@H](Cc1ccc2ccccc2c1)NC(=O)[C@H]1CC[C@H](CNC(=O)CCC(C(=O)O)N2CCN(CC(=O)O)CCN(C(CCC(=O)N[C@@H](CCCCNC(=O)CCCc3ccc(I)cc3)C(=O)O)C(=O)O)CCN(CC(=O)O)CC2)CC1)C(=O)O)C(=O)O (some centres unmarked) [[^111In]In-PSMA-NAT-DA1, metal not drawn]	significantly reduced	high binding ability	significantly high	–
–	–	O=C([O-])CN1CCN(C(CCC(=O)NCCC(=O)N2Cc3ccccc3-c3c(nnn3CCOCCOCCOCCOCCC(=O)NCCCC[C@H](NC(=O)N[C@@H](CCC(=O)O)C(=O)O)C(=O)O)-c3ccccc32)C(=O)[O-])CCN(CC(=O)[O-])CCN(C(CCC(=O)N[C@@H](CCCCNC(=O)CCCc2ccc(I)cc2)C(=O)O)C(=O)[O-])CC1.[111In+3] (some centres unmarked) [[^111In]In-PtDA]	–	–	–	radioactivity in the eluate ([1]; PBS): 6.9%; radioactivity in the eluate ([1]; human albumin solution): 92.4%; binding to LNCaP cells with excess PSMA inhibitor (2-PMPA) ([2]; 2-PMPA 100 μM): 0.36 % ID/mg protein; binding to LNCaP cells ([2]; 37° C., 1 hour): 15 % ID/mg protein; radioactivity in the eluate ([3]; human plasma): 79.0%
